Source: US11358931B2, “Selective androgen receptor modulators (SARMs) and uses thereof” (priority 2007, dated 2022)
Like-named read-outs stand apart in the source and are kept apart here.

Columns and labels:
[1] = Pharmacokinetics in orchidectomized male rats (plasma, Day 14); type: in vivo; conditions: rat, ORX male rats; for AUC: male, po; for Cmax / Tmax: PO
Excerpt: In this assay, two-month old rats were acclimated in a vivarium for one week. After this acclimation period, rats were surgically orchidectomized under isoflurane anesthesia and left untreated for 14 days. After 14 days, animals were sorted into groups such that no statistically significant differences in mean body weights were observed. Rats began receiving treatment 14 days after the day of surgery. Sham-operated and orchidectomized rats, treated with vehicle, served as controls. The different test groups were treated with various doses of Compound 102 (0.03 to 100 mg/kg/day per os (by mouth)). Dosages included 0.03, 0.1, 0.3, 1, 3, 10, 30 and 100 mg/kg/day. Ostarine, a non-steroidal androgenic drug (Evans et al., J Clin Oncology 25: 9119 (2007)) was dosed at dosages similar to other test groups as a comparison. After the 14th dose, venous blood was collected at 0, 1, 2, 4 and 6 hours after dosing. The blood samples were collected in EDTA-containing tubes (Becton Dickinson, Franklin Lakes, N.J.). Approximately 24 hours after the last dose, animals were euthanized and seminal vesicle weights, ventral prostate weights, levator ani weights, preputial gland weights and blood samples were collected on necropsy.
The determination of plasma concentration was done by an LC-MS/MS method. The standard solution of each drug was spiked in blank rat plasma, calibration standards were constructed from 0.0001 μg/mL to 10 μg/mL; and 50 μL of each calibration standard was extracted with 250 μL of acetonitrile containing 10 ng/mL of internal standard in a 96-well plate. Also, 50 μL of plasma sample was extracted with 250 μL of acetonitrile containing internal standard in a 96-well plate.
Peak pharmacokinetic (PK) parameters were calculated and rounded to three decimal places.

[2] = 14-day oral toxicity study in Sprague Dawley rats; type: in vivo, rat; conditions: Sprague-Dawley, rat, in vivo; SD rats, oral gavage once daily for 14 days; read-out: No-observed-adverse-effect level (NOAEL)
Description: A Sprague Dawley Rat model was used to study oral toxicity and toxicokinetics. Animals were assigned to groups by a stratified randomization scheme designed to achieve similar group mean body weights and the groups were randomly assigned to a dosing to provide control of bias.
All animals were dosed via oral gavage once daily for 14 days. The animals were evaluated for changes in clinical signs (mortality/morbidity observations, twice daily), cage side observations (general appearance and behavior), food consumption (quantitatively measured by weighing), body weights, clinical pathology indices including serum chemistry, hematology, coagulation and urinalysis, and other parameters. Blood samples were collected for toxicokinetics analysis from Groups 6-10 at various time points on Days 1 and 14 (Group 6 4 hours post dose; Groups 7-10 at 1, 4 and 12 hours or 2, 8 and 24 hours). The animals were fasted for at least 8 hours prior to blood collections for serum chemistry and urine collection. Serum chemistry parameters tested included alanine aminotransferase, total protein, aspartate aminotransferase, albumin, alkaline phosphatase, globulin, gamma-glutamyl-transferase, albumin/globulin ratio, lactate dehydrogenase, glucose, total bilirubin, cholesterol, urea nitrogen, triglycerides, creatinine, sodium, calcium, potassium, phosphorus and chloride. Hematology parameters analyzed included red blood cell count, reticulocyte count, hemoglobin concentration, red blood cell distribution width, mean corpuscular volume, mean platelet volume, mean corpuscular hemoglobin concentration, white blood cell count and differentials and mean corpuscular hemoglobin. Urinalysis parameters included color/character, ketones, specific gravity, bilirubin, pH, occult blood, protein, glucose and microscopics. Main study animals were euthanized on Day 15. At termination, a full necropsy was conducted and all tissues were collected, preserved, processes and examined microscopically from Groups 1 and 5, and target organs (liver and kidney) from Groups 2-4, by a veterinary pathologist certified by the American College of Veterinary Pathologists.
Control vehicle included Peg-400 (Sigma P-3265), Tween 80 (Sigma P-8074) and PVP-K30 (polyvinyl pyrrolidone or povidone K-30, Spectrum PN P1454) at a ratio of 90:5:5, w/w/w. Appropriate amounts of Compound 102 were added to the control vehicle to produce homogeneous dosing solutions/suspensions.

[3] = Toxicokinetics in cynomolgus monkeys (14-day oral study); type: in vivo, cynomolgus monkey
Description: A study was performed to determine any potential toxicity and the toxicokinetic profile of Compound 102 when administered orally (via nasal gavage) to cynomolgus monkeys for at least 14 days. The cynomolgus monkey was chosen for this study as it is a non-rodent species that is commonly used for non-clinical toxicity evaluations. Use of the monkey model maximized the likelihood of identifying toxicological responses that may occur in humans. Ten experimentally naïve cynomolgus monkeys (5 male and 5 female) from about 2.5 to 3 years of age and weighing between about 2.3 to about 2.8 kg at Day −1 of the study were assigned to dose groups as shown in Table 6 below.
All animals were dosed via nasal gavage once daily for 14 consecutive days. The first day of dosing was designated Day 1 for all animals. The animals were evaluated for clinical signs (evaluation of mortality and morbidity, twice daily), cage side observations and food consumption (once daily), body weight (Days 1, 8 and 14), physical examination (Day −5 and post dosing following the 13/24 hour toxicokinetic collection on Day 14), ophthalmic examination (prestudy and owing the Day 13/24 hour toxicokinetic collection on Day 14), and clinical pathology parameters (serum chemistry, hematology and coagulation on Days −3 and 14), urine samples were collected during necropsy (Day 15) for urinalysis. Blood samples were collected for toxicokinetic analysis at 1, 2, 4, 8, 12 and 24 hours post dose on Days 1 and 13.

[4] = Oral bioavailability in animal species; conditions: multiple animal species, including monkeys

N#Cc1ccc(N2CCC[C@@H]2[C@@H](O)C(F)(F)F)cc1C(F)(F)F [Compound 102, R,R-4-(2-(1-Hydroxyl-2,2,2-trifluoroethyl)-pyrrolidinyl)-2-trifluoromethyl-benzonitrile]
AUC ([1]; 0.01 mg/kg, Day 14, 0.01 mg/kg, 0 hr conc. substituted for 24 hr, read-out: AUC24): 15 ng·h/mL | AUC ([1]; 0.01 mg/kg, Day 14, 0.01 mg/kg, read-out: AUC6): 4 ng·h/mL | AUC ([1]; 0.03 mg/kg, Day 14, 0.03 mg/kg, 0 hr conc. substituted for 24 hr, read-out: AUC24): 5 ng·h/mL | AUC ([1]; 0.03 mg/kg, Day 14, 0.03 mg/kg, read-out: AUC6): 2 ng·h/mL | AUC ([1]; 0.3 mg/kg, Day 14, 0.3 mg/kg, 0 hr conc. substituted for 24 hr, read-out: AUC24): 42 ng·h/mL | AUC ([1]; 0.3 mg/kg, Day 14, 0.3 mg/kg, read-out: AUC6): 18 ng·h/mL | AUC ([1]; 1 mg/kg, Day 14, 1 mg/kg, 0 hr conc. substituted for 24 hr, read-out: AUC24): 123 ng·h/mL | AUC ([1]; 1 mg/kg, Day 14, 1 mg/kg, read-out: AUC6): 63 ng·h/mL | AUC ([1]; 3 mg/kg, Day 14, 3 mg/kg, 0 hr conc. substituted for 24 hr, read-out: AUC24): 234 ng·h/mL | AUC ([1]; 3 mg/kg, Day 14, 3 mg/kg, read-out: AUC6): 113 ng·h/mL | AUC ([1]; 10 mg/kg, Day 14, 10 mg/kg, 0 hr conc. substituted for 24 hr, read-out: AUC24): 764 ng·h/mL | AUC ([1]; 10 mg/kg, Day 14, 10 mg/kg, read-out: AUC6): 370 ng·h/mL | AUC ([1]; 30 mg/kg, Day 14, 30 mg/kg, 0 hr conc. substituted for 24 hr, read-out: AUC24): 1880 ng·h/mL | AUC ([1]; 30 mg/kg, Day 14, 30 mg/kg, read-out: AUC6): 645 ng·h/mL | AUC ([1]; 100 mg/kg, Day 14, 100 mg/kg, 0 hr conc. substituted for 24 hr, read-out: AUC24): 4050 ng·h/mL | AUC ([1]; 100 mg/kg, Day 14, 100 mg/kg, read-out: AUC6): 998 ng·h/mL | Cmax ([1]; Day 14, 0.01 mg/kg): 2 ng/mL | Tmax ([1]; Day 14, 0.01 mg/kg): 2.8 h | Cmax ([1]; Day 14, 0.03 mg/kg): 1 ng/mL | Tmax ([1]; Day 14, 0.03 mg/kg): 2 h | Cmax ([1]; Day 14, 0.3 mg/kg): 12 ng/mL | Tmax ([1]; Day 14, 0.3 mg/kg): 1.3 h | Cmax ([1]; Day 14, 1 mg/kg): 18 ng/mL | Tmax ([1]; Day 14, 1 mg/kg): 2.5 h | Cmax ([1]; Day 14, 3 mg/kg): 36 ng/mL | Tmax ([1]; Day 14, 3 mg/kg): 1.3 h | Cmax ([1]; Day 14, 10 mg/kg): 111 ng/mL | Tmax ([1]; Day 14, 10 mg/kg): 1.8 h | Cmax ([1]; Day 14, 30 mg/kg): 205 ng/mL | Tmax ([1]; Day 14, 30 mg/kg): 4.3 h | Cmax ([1]; Day 14, 100 mg/kg): 321 ng/mL | Tmax ([1]; Day 14, 100 mg/kg): 3.5 h | NOAEL at 14 days [2]: 700 mg/kg/day | sex difference in toxicokinetic parameters ([3]; Day 1 and Day 13): no noticeable sex difference | effect of repeat administration on systemic exposure ([3]; Day 13 relative to Day 1): decreased on Day 13 | systemic exposure versus dose ([3]; both sexes): increased with increasing dose up to 450 mg/kg | oral bioavailability [4]: orally bioavailable
